Test results taken from patent publication US6855309B2, “Cascade polymer bound complexing compounds, their complexes and conjugates, processes for their production, and pharmaceutical agents containing them” (Schering, AG, priority 1989, dated 2005).
Where two headings read alike, the source gives them in different places.

How the values were obtained:
mice = assay: LD50 i.v. in mice; type: in vivo
[1] = Concentration-time curve in blood after intravenous administration in rats; type: in vivo; details: 0.2 mmol/kg intravenous
[2] = in vivo, cited from earlier work
Osmolality = type: physicochemical; details: 0.5 mol/l at 37° C.
[3] = rat, in vivo; cited from earlier work
[4] = rat, in vivo; cited from earlier work; remark: listed apart in the source

Compound: CNC[C@H](O)[C@@H](O)[C@H](O)[C@H](O)CO.CNC[C@H](O)[C@@H](O)[C@H](O)[C@H](O)CO.O=C([O-])CN(CCN(CC(=O)[O-])CC(=O)O)CCN(CC(=O)[O-])CC(=O)O.[Gd+3] [Magnevist, GdDTPA/dimeglumine]
- LD50 (mice): ≤ 10 mmol/kg
- distribution space [1]: distributed in the extracellular space
- route of elimination ([2]; iv): eliminated, upon intravenous injection, by way of the kidneys
- distribution after intravenous administration [2]: distributed after intravenous administration uniformly between the vasal and interstitial spaces
- Osmolality (Osmolality): 1.96 osmol/kg

Compound: Albumin-GdDTPA
- dose eliminated [3]: 20 % of the dose

Compound: polylysine-GdDTPA
- route of elimination [4]: eliminated unchanged by glomerular filtration via the kidneys
